Assays:
[1] = Post-emergent Test III, herbicidal activity in wheat and barley; type: in vivo, Lolium multiflorum, Lolium rigidum; conditions: Lolium multiflorum, post-emergence, 504 h, read-out: Visual Growth Reduction (%) 21 Days After Application LOLSS; for pest or weed control at 35 g/ha: 35 g ai/ha; for pest or weed control at 70 g/ha: 70 g ai/ha; for pest or weed control at 140 g/ha: 140 g ai/ha
Description: (§1) Post-emergent Test III. Seeds of the desired test plant species were planted in Sun Gro MetroMix® 306 planting mixture, which typically has a pH of 6.0 to 6.8 and an organic matter content of about 30 percent, in plastic pots with a surface area of 103.2 square centimeters (cm^2). When required to ensure good germination and healthy plants, a fungicide treatment and/or other chemical or physical treatment was applied. The plants were grown for 7-36 days (d) in a greenhouse with an approximate 14 hour (h) photoperiod which was maintained at about 18° C. during the day and 17° C. during the night. Nutrients and water were added on a regular basis and supplemental lighting was provided with overhead metal halide 1000-Watt lamps as necessary. The plants were employed for testing when they reached the second or third true leaf stage.
(§2) A weighed amount, determined by the highest rate to be tested, of each test compound was placed in a 25 mL glass vial and was dissolved in 4 mL of a 97:3 v/v mixture of acetone and DMSO to obtain concentrated stock solutions. […] The concentrated stock solutions obtained were diluted with 20 mL of an aqueous mixture containing acetone, water, isopropyl alcohol, DMSO, Agri-Dex crop oil concentrate, and X-77 surfactant in a 48:39:10:1.5:1.5:0.02 v/v ratio to obtain spray solutions containing the highest application rates. Additional application rates were obtained by serial dilution of 12 mL of the high rate solution into a solution containing 2 mL of 97:3 v/v mixture of acetone and DMSO and 10 mL of an aqueous mixture containing acetone, water, isopropyl alcohol, DMSO, Agri-Dex crop oil concentrate, and X-77 surfactant in a 48:39:10:1.5:1.5:0.02 v/v ratio to obtain ½×, ¼×, ⅛× and 1/16× rates of the high rate. Compound requirements are based upon a 12 mL application volume at a rate of 187 liters per hectare (L/ha). Formulated compounds were applied to the plant material with an overhead Mandel track sprayer equipped with 8002E nozzles calibrated to deliver 187 L/ha over an application area of 0.503 square meters at a spray height of 18 inches (43 cm) above the average plant canopy height. Control plants were sprayed in the same manner with the solvent blank.
(§3) The treated plants and control plants were placed in a greenhouse as described above and watered by subirrigation to prevent wash-off of the test compounds. After 21 d, the condition of the test plants as compared with that of the untreated plants was determined visually and scored on a scale of 0 to 100 percent where 0 corresponds to no injury and 100 corresponds to complete kill.
(§4) By applying the well-accepted probit analysis as described by J. Berkson in Journal of the American Statistical Society, 48, 565 (1953) and by D. Finney in “Probit Analysis” Cambridge University Press (1952), herbicidal injury of a specific compound at various rates can be used to calculate GR20, GR50, GR80 and GR90 values, which are defined as growth reduction factors that correspond to the effective dose of herbicide required to provide plant growth reduction (GR) of 20 percent, 50 percent, 80 percent and 90 percent, respectively. Probit analysis was applied to data collected from multiple dose rates of individual compounds utilizing the procedures explained in the following examples. The analysis of those dose rates is captured in the following tables.

[2] = test system: APESV: bentgrass (Apera spica-venti); experiment: as above; type: in vivo; conditions: for pest or weed control at 35 g/ha / pest or weed control at 70 g/ha / pest or weed control at 140 g/ha: Apera spica-venti, post-emergence, 504 h, read-out: Visual Growth Reduction (%) 21 Days After Application APESV; for pest or weed control at 35 g/ha: 35 g ai/ha; for pest or weed control at 70 g/ha: 70 g ai/ha; for pest or weed control at 140 g/ha: 140 g ai/ha; for GR50 APESV / GR80 APESV: probit analysis, 21 days after application; for GR50 APESV: dose for growth reduction of 50 percent; for GR80 APESV: dose for growth reduction of 80 percent
Description: as §1, §2, §3, §4

[3] = test system: KCHSC: kochia (Kochia scoparia); experiment: as above; type: in vivo; conditions: for pest or weed control at 35 g/ha / pest or weed control at 70 g/ha / pest or weed control at 140 g/ha: Bassia scoparia, post-emergence, 504 h, read-out: Visual Growth Reduction (%) 21 Days After Application KCHSC; for pest or weed control at 35 g/ha: 35 g ai/ha; for pest or weed control at 70 g/ha: 70 g ai/ha; for pest or weed control at 140 g/ha: 140 g ai/ha; for GR50 KCHSC / GR80 KCHSC: probit analysis, 21 days after application; for GR50 KCHSC: dose for growth reduction of 50 percent; for GR80 KCHSC: dose for growth reduction of 80 percent
Description: as §1, §2, §3, §4

[4] = test system: LOLSS: ryegrass including, Italian ryegrass (Lolium multiflorum), rigid ryegrass (Lolium rigidum), annual ryegrass (Lolium multiflorum subsp. Gaudini); experiment: as above; type: in vivo; conditions: probit analysis, 21 days after application; for GR50 LOLSS: dose for growth reduction of 50 percent; for GR80 LOLSS: dose for growth reduction of 80 percent
Description: as §1, §2, §3, §4

[5] = test system: MATSS: scented mayweed (Matricaria chamomilla), pineappleweed (Matricaria matricarioides); experiment: as above; type: in vivo; conditions: for pest or weed control at 35 g/ha / pest or weed control at 70 g/ha / pest or weed control at 140 g/ha: Matricaria chamomilla, post-emergence, 504 h, read-out: Visual Growth Reduction (%) 21 Days After Application MATSS; for pest or weed control at 35 g/ha: 35 g ai/ha; for pest or weed control at 70 g/ha: 70 g ai/ha; for pest or weed control at 140 g/ha: 140 g ai/ha; for GR50 MATSS / GR80 MATSS: probit analysis, 21 days after application; for GR50 MATSS: dose for growth reduction of 50 percent; for GR80 MATSS: dose for growth reduction of 80 percent
Description: as §1, §2, §3, §4

[6] = test system: HORSS: barley, including spring and winter (Hordeum vulgare); experiment: as above; type: in vivo
Description: as §1, §2, §3, §4

[7] = test system: SETVI: green foxtail (Setaria viridis); experiment: as above; type: in vivo
Description: as §1, §2, §3, §4

[8] = test system: TRZSS: wheat, including spring and winter (Triticum aestivum); experiment: as above; type: in vivo
Description: as §1, §2, §3, §4

[9] = probit analysis, dose for growth reduction of 20 percent, 21 days after application, crop

Structure (SMILES)	pest or weed control at 35 g/ha [1]	pest or weed control at 70 g/ha [1]	pest or weed control at 140 g/ha [1]	pest or weed control at 35 g/ha [2]	pest or weed control at 70 g/ha [2]	pest or weed control at 140 g/ha [2]	GR50 APESV [2]	GR80 APESV [2]	pest or weed control at 35 g/ha [3]	pest or weed control at 70 g/ha [3]	pest or weed control at 140 g/ha [3]	GR50 KCHSC [3]	GR80 KCHSC [3]	GR50 LOLSS [4]	GR80 LOLSS [4]	pest or weed control at 35 g/ha [5]	pest or weed control at 70 g/ha [5]	pest or weed control at 140 g/ha [5]	GR50 MATSS [5]	GR80 MATSS [5]	further results
Nc1c(F)c(-c2ccc(Br)c(F)c2F)nc(C(=O)O)c1Cl [Compound 147]	30 to 44%	45 to 59%	60 to 74%	85 to 94%	85 to 94%	85 to 94%	5 g ai/ha	16 g ai/ha	85 to 94%	95 to 100%	85 to 94%	4 g ai/ha	19 g ai/ha	71 g ai/ha	>140 g ai/ha	95 to 100%	95 to 100%	95 to 100%	6 g ai/ha	14 g ai/ha	
COC(=O)c1nc(-c2ccc(C(F)F)cc2)c(F)c(N)c1Cl [Compound 209]	0 to 29%	30 to 44%		0 to 29%	0 to 29%		>140 g ai/ha	>140 g ai/ha	60 to 74%	85 to 94%		12 g ai/ha	42 g ai/ha	93 g ai/ha	>140 g ai/ha	0 to 29%	0 to 29%		>140 g ai/ha	>140 g ai/ha	
COC(=O)c1nc(-c2ccc(Br)c(F)c2F)c(F)c(N)c1Cl [Compound 109, methyl 4-amino-6-(4-bromo-2,3-difluorophenyl)-3-chloro-5-fluoropicolinate]	45 to 59%	45 to 59%		85 to 94%	85 to 94%		1 g ai/ha	6 g ai/ha	85 to 94%	85 to 94%		3 g ai/ha	19 g ai/ha	34 g ai/ha	>140 g ai/ha	30 to 44%	45 to 59%		72 g ai/ha	>140 g ai/ha	
COC(=O)c1nc(-c2ccc(OC(F)F)cc2)c(F)c(N)c1Cl [Compound 85]	0 to 29%	0 to 29%	0 to 29%	0 to 29%	0 to 29%	0 to 29%	>140 g ai/ha	>140 g ai/ha	0 to 29%	0 to 29%	0 to 29%	>140 g ai/ha	>140 g ai/ha			0 to 29%	0 to 29%	0 to 29%	88 g ai/ha	>140 g ai/ha	pest or weed control at 35 g/ha ([6]; Hordeum vulgare, post-emergence, 504 h, 35 g ai/ha, read-out: Visual Growth Reduction (%) 21 Days After Application HORSS): 0 to 29%; pest or weed control at 70 g/ha ([6]; Hordeum vulgare, post-emergence, 504 h, 70 g ai/ha, read-out: Visual Growth Reduction (%) 21 Days After Application HORSS): 30 to 44%; pest or weed control at 140 g/ha ([6]; Hordeum vulgare, post-emergence, 504 h, 140 g ai/ha, read-out: Visual Growth Reduction (%) 21 Days After Application HORSS): 60 to 74%; GR20 HORSS [6, 9]: 33 g ai/ha; pest or weed control at 35 g/ha ([7]; Setaria viridis, post-emergence, 504 h, 35 g ai/ha, read-out: Visual Growth Reduction (%) 21 Days After Application SETVI): 0 to 29%; pest or weed control at 70 g/ha ([7]; Setaria viridis, post-emergence, 504 h, 70 g ai/ha, read-out: Visual Growth Reduction (%) 21 Days After Application SETVI): 0 to 29%; pest or weed control at 140 g/ha ([7]; Setaria viridis, post-emergence, 504 h, 140 g ai/ha, read-out: Visual Growth Reduction (%) 21 Days After Application SETVI): 0 to 29%; GR50 SETVI ([7]; probit analysis, dose for growth reduction of 50 percent, 21 days after application): >140 g ai/ha; GR80 SETVI ([7]; probit analysis, dose for growth reduction of 80 percent, 21 days after application): >140 g ai/ha; pest or weed control at 35 g/ha ([8]; Triticum aestivum, post-emergence, 504 h, 35 g ai/ha, read-out: Visual Growth Reduction (%) 21 Days After Application TRZSS): 60 to 74%; pest or weed control at 70 g/ha ([8]; Triticum aestivum, post-emergence, 504 h, 70 g ai/ha, read-out: Visual Growth Reduction (%) 21 Days After Application TRZSS): 60 to 74%; pest or weed control at 140 g/ha ([8]; Triticum aestivum, post-emergence, 504 h, 140 g ai/ha, read-out: Visual Growth Reduction (%) 21 Days After Application TRZSS): 60 to 74%; GR20 TRZSS [8, 9]: 1 g ai/ha

Reference: patent US9113629B2, “4-amino-6-(4-substituted-phenyl)-picolinates and 6-amino-2-(4-substituted-phenyl)-pyrimidine-4-carboxylates and their use as herbicides” (DOW AGROSCIENCES LLC, priority 2013, dated 2015)
